The test system of experiment [1] is BxPC3 cells. As to the kind of experiment: Rucaparib clonogenic assay. Type of experiment: cell-based. The settings on record: Homo sapiens. As to the method:
(§1) Cell viability assays. For clonogenic assays, 1000 cells per well were seeded into 6 well plates on day 0. Cells were treated with gemcitabine at various doses on day 1 for 24 hours, Gemcitabine was washed out on day 2, and cells were allowed to grow for a subsequent 10 days before being fixed (10% methanol+10% acetic acid) and stained with crystal violet (0.4% in 20% ethanol) for colony counting and quantitation. For Rucaparib clonogenic assays, the drug was added at various doses 24 hours after cell plating, and cells were allowed to grow for a subsequent 10 days in the presence of Rucaparib. For TSA clonogenic assays, the drug was added for 4 hours prior to addition of gemcitabine or vehicle for another 18 hours before drugs were washed away, and cells were allowed to grow in drug-free medium for 10 days.
(§2) BxPC3 and Panc1 cells were transfected with control, VDR, and BRCA1 siRNAs and their sensitivity to Rucaparib treatment was compared by clonogenic survival. […] For BXPC3 cells, the IC50s after knockdown of BRCA1 and VDR were 1 and 5 uM, respectively (FIG. 6, A) compared to the control IC50 of 9 μM.

A further experiment deals with Panc1 cells. As to the kind of experiment: Rucaparib clonogenic assay. Type of experiment: cell-based. The settings on record: Homo sapiens. As to the method: as §1, §2
Experiment [2] relates to BxPC3 cells. Description: Immunofluorescence of DNA damage foci (phospho-γH2AX, Rad51, 53BP1) after gemcitabine. Type of experiment: cell-based, human. The settings on record: BxPC3 VDRkd, TSA (500 nM) treatment, 4 hrs in gemcitabine (50 nM). How it is done:
For Immunofluorescence, cells were plated onto coverslips 24 hours pre-gemcitabine treatment. At different timepoints post gemcitabine treatment, cells were permeablized, fixed (4% paraformaldehyde) and stained. Antibodies to γH2AX (Millipore; 05-636), Rad51 (a gift), and 53BP1 were used. Alexa Fluor-conjugated (488, 555, and 647 nm) secondary antibodies (Molecular probes; A-11029, A-21428, A-21247) were used at a final concentration of 1 and nuclei counterstained with DAPI. Images were captured using a 40× or 63× high NA objective mounted on a semi-automated inverted microscope (Nikon TEi) with a charge-coupled device camera (Photometrics1394) using Nikon Elements 2.0. Exposure times for antibodies were optimized for control samples and identical exposure times used for the experimental samples. Images were quantitated and analyzed using Nikon Elements 2.0. Confocal images were taken using a Leica TCS-SP8 microscope controlled by LAS software (Leica Microsystems).
It was investigated if these repair pathways were abrogated after VDR knockdown by staining for foci formation by phospho-γH2AX, Rad51, and 53BP1, and measuring intensities after gemcitabine treatment (FIGS. 3, 4, and 5). BxPC3 (high VDR expression) and Panc1 (low VDR expression) cells were treated with gemcitabine (50 nM) for 2, 4, 8, and 18 hours, and fixed and stained for phospho-γH2AX, 53BP1, and Rad51. Foci quantitation included counting of nuclei with >5 foci and a separate measurement of the sum intensities of foci that were averaged for 5 separate immunofluorescence experiments. […] Weak but detectable phospho-γH2AX foci were visible within 4 hours of gemcitabine treatment in BxPC3 cells while it took 18 hours for foci to form in Panc1 cells (FIG. 3, A). Similarly, Rad51 foci were visible after 8 hours of gemcitabine treatment in BxPC3 cells compared to 18 hours in Panc1 cells (FIG. 3, A, FIG. 4, and FIG. 5).

The text below walks through data of patent US10449200B2, “Combined inhibition of the vitamin D receptor and poly(ADP) ribose polymerase (PARP) in the treatment of cancer” (Institute for Cancer Research, priority 2014, dated 2019).

As a reminder, the IC50 is the point on the concentration scale where inhibition reaches its midpoint.

With `CNCc1ccc(-c2[nH]c3cc(F)cc4c3c2CCNC4=O)cc1` [Rucaparib], the IC50 turned out to be 1000 nM in the experiment on BxPC3 cells [1] (BXPC-3, BXPC3, knockdown of BRCA1 (siRNA)); 5000 nM with BxPC3 cells [1] (BXPC-3, BXPC3, knockdown of VDR (siRNA)); 9000 nM in the experiment on BxPC3 cells [1] (BXPC-3, BxPC3, control siRNA); 4000 nM in the experiment with Panc1 cells (PANC-1, Panc1, control siRNA); 3.5 nM with Panc1 cells (PANC-1, Panc1, knockdown of BRCA1 (siRNA)); 400 nM in the experiment on Panc1 cells (PANC-1, Panc1, knockdown of VDR (siRNA)).
Consider `CC(/C=C/C(=O)NO)=C\[C@@H](C)C(=O)c1ccc(N(C)C)cc1` [TSA, trichostatin A], for which the “cells exhibiting Rad51 foci” value in the experiment with BxPC3 cells [2] stood at 89%.
